Source: ChEMBL document CHEMBL1914411, “Synthesis of lipophilic dimeric C-7/C-7-linked ciprofloxacin and C-6/C-6-linked levofloxacin derivatives. Versatile in vitro biological evaluations of monomeric and dimeric fluoroquinolone derivatives as potential antitumor, antibacterial or antimycobacterial agents” (Eur J Med Chem, 2011)
Values after ≈ are worked out from the molar mass of the structure shown. Active and inactive are the calls of the source. How the calls were made is not given here.

Legend:
Staphylococcus aureus [1] = assay: Antimicrobial activity against Staphylococcus aureus CIP 4.83 after 18 to 24 hrs by broth microdilution method; type: functional
Enterococcus hirae = assay: Antimicrobial activity against Enterococcus hirae CIP 5855 after 18 to 24 hrs by broth microdilution method; type: functional
Pseudomonas aeruginosa = assay: Antimicrobial activity against Pseudomonas aeruginosa CIP 82.118 after 18 to 24 hrs by broth microdilution method; type: functional
Escherichia coli = assay: Antimicrobial activity against Escherichia coli CIP 53126 after 18 to 24 hrs by broth microdilution method; type: functional
Staphylococcus aureus [2] = assay: Antimicrobial activity against methicillin-resistant Staphylococcus aureus ATCC 33591 after 18 to 24 hrs by broth microdilution method; type: functional
Staphylococcus aureus [3] = assay: Antimicrobial activity against methicillin-resistant Staphylococcus aureus ATCC 33592 after 18 to 24 hrs by broth microdilution method; type: functional
Staphylococcus aureus [4] = assay: Antimicrobial activity against multidrug-resistant Staphylococcus aureus isolate 1 after 18 to 24 hrs by broth microdilution method; type: functional
Staphylococcus aureus [5] = assay: Antimicrobial activity against multidrug-resistant Staphylococcus aureus isolate 2 after 18 to 24 hrs by broth microdilution method; type: functional
[6] = system: Mycobacterium tuberculosis; assay: Antimycobacterial activity against Mycobacterium tuberculosis H37Rv assessed as growth inhibition at 0.1 uM after 6 days by MTT colorimetric microassay; type: functional, organism-based

Row | Structure (SMILES) | MBC (Staphylococcus aureus [1]) | MIC (Staphylococcus aureus [1]) | MBC (Enterococcus hirae) | MIC (Enterococcus hirae) | MBC (Pseudomonas aeruginosa) | MIC (Pseudomonas aeruginosa) | MBC (Escherichia coli) | MIC (Escherichia coli) | MBC (Staphylococcus aureus [2]) | MIC (Staphylococcus aureus [2]) | MBC (Staphylococcus aureus [3]) | MIC (Staphylococcus aureus [3]) | MBC (Staphylococcus aureus [4]) | MIC (Staphylococcus aureus [4]) | MBC (Staphylococcus aureus [5]) | MIC (Staphylococcus aureus [5]) | growth inhibition (GI) [6]
1 | CCCCC(=O)N1CCN(c2cc3c(cc2F)c(=O)c(C(=O)O)cn3C2CC2)CC1 | ≤ 0.48 µM | ≤ 0.24 µM | 7.8 µM (≈ 3.24 µg/mL) | 7.8 µM (≈ 3.24 µg/mL) | 250 µM (≈ 104 µg/mL) | 62.5 µM (≈ 26 µg/mL) | 15.6 µM (≈ 6.48 µg/mL) | 7.8 µM (≈ 3.24 µg/mL) | 0.48 µM (≈ 0.199 µg/mL) | 0.48 µM (≈ 0.199 µg/mL) | 0.48 µM (≈ 0.199 µg/mL) | 0.24 µM (≈ 0.0997 µg/mL) | 500 µM (≈ 208 µg/mL) | 62.5 µM (≈ 26 µg/mL) | 31.2 µM (≈ 13 µg/mL) | 31.2 µM (≈ 13 µg/mL) | inactive
2 | CC(=O)OCC(=O)N1CCN(c2cc3c(cc2F)c(=O)c(C(=O)O)cn3C2CC2)CC1 | ≤ 0.97 µM | ≤ 0.97 µM | 15.6 µM (≈ 6.73 µg/mL) | 15.6 µM (≈ 6.73 µg/mL) | 250 µM (≈ 108 µg/mL) | 62.5 µM (≈ 27 µg/mL) | 15.6 µM (≈ 6.73 µg/mL) | 7.8 µM (≈ 3.37 µg/mL) | 3.9 µM (≈ 1.68 µg/mL) | 3.9 µM (≈ 1.68 µg/mL) | 1.9 µM (≈ 0.82 µg/mL) | 0.97 µM (≈ 0.418 µg/mL) | 500 µM (≈ 216 µg/mL) | 125 µM (≈ 53.9 µg/mL) | 125 µM (≈ 53.9 µg/mL) | 125 µM (≈ 53.9 µg/mL) | inactive
3 | O=C(O)c1cn(C2CC2)c2cc(N3CCN(C(=O)CCCCCCCCCCCCCCC(=O)N4CCN(c5cc6c(cc5F)c(=O)c(C(=O)O)cn6C5CC5)CC4)CC3)c(F)cc2c1=O | 15.6 µM (≈ 14.2 µg/mL) | 1.9 µM (≈ 1.73 µg/mL) | 500 µM (≈ 457 µg/mL) | 62.5 µM (≈ 57.1 µg/mL) | 250 µM (≈ 228 µg/mL) | 62.5 µM (≈ 57.1 µg/mL) | 500 µM (≈ 457 µg/mL) | 62.5 µM (≈ 57.1 µg/mL) | – | – | – | – | – | – | – | – | inactive
4 | CCOC(=O)N1CCN(c2cc3c(cc2F)c(=O)c(C(=O)O)cn3C2CC2)CC1 | ≤ 0.97 µM | ≤ 0.97 µM | 3.9 µM (≈ 1.57 µg/mL) | 3.9 µM (≈ 1.57 µg/mL) | 250 µM (≈ 101 µg/mL) | 62.5 µM (≈ 25.2 µg/mL) | 31.2 µM (≈ 12.6 µg/mL) | 7.8 µM (≈ 3.15 µg/mL) | 1.9 µM (≈ 0.766 µg/mL) | 0.97 µM (≈ 0.391 µg/mL) | 1.9 µM (≈ 0.766 µg/mL) | 0.48 µM (≈ 0.194 µg/mL) | 500 µM (≈ 202 µg/mL) | 125 µM (≈ 50.4 µg/mL) | 125 µM (≈ 50.4 µg/mL) | 62.5 µM (≈ 25.2 µg/mL) | inactive
5 | O=C(CCCCCCCCCCC(=O)OCN1CCN(c2cc3c(cc2F)c(=O)c(C(=O)O)cn3C2CC2)CC1)OCN1CCN(c2cc3c(cc2F)c(=O)c(C(=O)O)cn3C2CC2)CC1 | ≤ 0.97 µM | ≤ 0.97 µM | 31.2 µM (≈ 28.6 µg/mL) | 31.2 µM (≈ 28.6 µg/mL) | 125 µM (≈ 115 µg/mL) | 62.5 µM (≈ 57.3 µg/mL) | 62.5 µM (≈ 57.3 µg/mL) | 31.2 µM (≈ 28.6 µg/mL) | 3.9 µM (≈ 3.58 µg/mL) | 1.9 µM (≈ 1.74 µg/mL) | 0.48 µM (≈ 0.44 µg/mL) | 0.24 µM (≈ 0.22 µg/mL) | 250 µM (≈ 229 µg/mL) | 125 µM (≈ 115 µg/mL) | 250 µM (≈ 229 µg/mL) | 62.5 µM (≈ 57.3 µg/mL) | inactive
6 | CCCCCCCCCCCCCC(=O)N1CCN(c2cc3c(cc2F)c(=O)c(C(=O)O)cn3C2CC2)CC1 | 125 µM (≈ 67.7 µg/mL) | 125 µM (≈ 67.7 µg/mL) | 250 µM (≈ 135 µg/mL) | 62.5 µM (≈ 33.9 µg/mL) | 250 µM (≈ 135 µg/mL) | 125 µM (≈ 67.7 µg/mL) | 500 µM (≈ 271 µg/mL) | 125 µM (≈ 67.7 µg/mL) | – | – | – | – | – | – | – | – | inactive
7 | CCCCNC(=O)c1cn2c3c(c(N4CCN(C)CC4)c(F)cc3c1=O)OC[C@@H]2C | 125 µM (≈ 52.1 µg/mL) | 125 µM (≈ 52.1 µg/mL) | 250 µM (≈ 104 µg/mL) | 125 µM (≈ 52.1 µg/mL) | 250 µM (≈ 104 µg/mL) | 62.5 µM (≈ 26 µg/mL) | 62.5 µM (≈ 26 µg/mL) | 62.5 µM (≈ 26 µg/mL) | – | – | – | – | – | – | – | – | inactive
8 | CCCCCCCCOC(=O)N1CCN(c2cc3c(cc2F)c(=O)c(C(=O)O)cn3C2CC2)CC1 | 62.5 µM (≈ 30.5 µg/mL) | 7.8 µM (≈ 3.8 µg/mL) | 125 µM (≈ 60.9 µg/mL) | 125 µM (≈ 60.9 µg/mL) | 250 µM (≈ 122 µg/mL) | 125 µM (≈ 60.9 µg/mL) | 500 µM (≈ 244 µg/mL) | 125 µM (≈ 60.9 µg/mL) | – | – | – | – | – | – | – | – | inactive
9 | CCCCCCCCCOC(=O)N1CCN(c2cc3c(cc2F)c(=O)c(C(=O)O)cn3C2CC2)CC1 | 125 µM (≈ 62.7 µg/mL) | 62.5 µM (≈ 31.3 µg/mL) | 250 µM (≈ 125 µg/mL) | 62.5 µM (≈ 31.3 µg/mL) | 250 µM (≈ 125 µg/mL) | 125 µM (≈ 62.7 µg/mL) | 500 µM (≈ 251 µg/mL) | 125 µM (≈ 62.7 µg/mL) | – | – | – | – | – | – | – | – | inactive
10 | CCCCCCCCCCCCOC(=O)N1CCN(c2cc3c(cc2F)c(=O)c(C(=O)O)cn3C2CC2)CC1 | 125 µM (≈ 68 µg/mL) | 125 µM (≈ 68 µg/mL) | 500 µM (≈ 272 µg/mL) | 62.5 µM (≈ 34 µg/mL) | 125 µM (≈ 68 µg/mL) | 125 µM (≈ 68 µg/mL) | 250 µM (≈ 136 µg/mL) | 125 µM (≈ 68 µg/mL) | – | – | – | – | – | – | – | – | inactive
11 | CCCCCCCCCCOC(=O)N1CCN(c2cc3c(cc2F)c(=O)c(C(=O)O)cn3C2CC2)CC1 | 62.5 µM (≈ 32.2 µg/mL) | 62.5 µM (≈ 32.2 µg/mL) | 500 µM (≈ 258 µg/mL) | 62.5 µM (≈ 32.2 µg/mL) | 250 µM (≈ 129 µg/mL) | 125 µM (≈ 64.5 µg/mL) | 500 µM (≈ 258 µg/mL) | 125 µM (≈ 64.5 µg/mL) | – | – | – | – | – | – | – | – | inactive
